{"source": "ChEMBL document CHEMBL1153197", "about": "“Synthetic studies and pharmacological evaluations on the MDMA ('Ecstasy') antagonist nantenine” (Bioorg Med Chem Lett, 2010)", "key": {"[1]": {"target": "Alpha-2B adrenergic receptor (Homo sapiens, UniProt P18089)", "experiment": "Displacement of [3H]Clonidine from human adrenergic alpha2B receptor"}, "D(2) dopamine receptor": {"target": "D(2) dopamine receptor (Homo sapiens, UniProt P14416)", "sequence (P14416 whole entry)": "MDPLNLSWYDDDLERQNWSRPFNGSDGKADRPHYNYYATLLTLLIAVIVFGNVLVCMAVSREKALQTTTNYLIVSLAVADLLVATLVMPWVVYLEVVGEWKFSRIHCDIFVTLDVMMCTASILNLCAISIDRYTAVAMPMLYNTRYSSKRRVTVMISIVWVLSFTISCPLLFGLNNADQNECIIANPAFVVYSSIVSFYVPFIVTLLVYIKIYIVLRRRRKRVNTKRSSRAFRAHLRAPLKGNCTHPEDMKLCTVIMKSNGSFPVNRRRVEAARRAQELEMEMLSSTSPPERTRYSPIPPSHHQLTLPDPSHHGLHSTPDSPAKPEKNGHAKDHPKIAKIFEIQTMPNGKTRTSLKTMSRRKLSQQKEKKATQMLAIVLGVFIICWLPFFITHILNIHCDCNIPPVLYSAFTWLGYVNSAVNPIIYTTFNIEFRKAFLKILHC", "experiment": "Displacement of [3H]N-methylspiperone from human dopamine D2 receptor"}, "Histamine H3 receptor": {"target": "Histamine H3 receptor (Homo sapiens, UniProt Q9Y5N1)", "experiment": "Displacement of [3H]alpha-methylhistamine from human histamine H3 receptor"}, "[2]": {"target": "Alpha-1D adrenergic receptor (Homo sapiens, UniProt P25100)", "sequence (P25100 whole entry)": "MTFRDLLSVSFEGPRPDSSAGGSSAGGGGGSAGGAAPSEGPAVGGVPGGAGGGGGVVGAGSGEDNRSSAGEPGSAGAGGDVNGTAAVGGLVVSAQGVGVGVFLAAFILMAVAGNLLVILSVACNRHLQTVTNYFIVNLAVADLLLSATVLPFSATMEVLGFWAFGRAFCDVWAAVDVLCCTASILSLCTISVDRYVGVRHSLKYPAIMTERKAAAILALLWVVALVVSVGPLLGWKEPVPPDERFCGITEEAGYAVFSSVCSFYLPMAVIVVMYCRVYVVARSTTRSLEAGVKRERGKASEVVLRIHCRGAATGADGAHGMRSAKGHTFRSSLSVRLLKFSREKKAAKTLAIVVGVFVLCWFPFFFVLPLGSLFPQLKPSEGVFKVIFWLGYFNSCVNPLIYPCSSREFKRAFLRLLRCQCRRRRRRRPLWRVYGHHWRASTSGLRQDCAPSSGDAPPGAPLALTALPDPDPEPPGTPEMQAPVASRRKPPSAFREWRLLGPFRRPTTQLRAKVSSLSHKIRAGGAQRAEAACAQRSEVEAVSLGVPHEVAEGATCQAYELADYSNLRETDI", "experiment": "Binding affinity to human adrenergic Alpha-1D receptor"}, "[3]": {"target": "Alpha-2A adrenergic receptor (Homo sapiens, UniProt P08913)", "experiment": "Displacement of [3H]Clonidine from human adrenergic alpha2A receptor"}, "[4]": {"target": "5-hydroxytryptamine receptor 2B (Homo sapiens, UniProt P41595)", "experiment": "Displacement of [3H]LSD from human 5HT2B receptor"}, "[5]": {"target": "5-hydroxytryptamine receptor 2C (Homo sapiens, UniProt P28335)", "experiment": "Displacement of [3H]Mesulergine from human 5HT2C receptor"}, "[6]": {"target": "Sodium-dependent dopamine transporter (Homo sapiens, UniProt Q01959)", "experiment": "Displacement of [3H]WIN-35428 from human DAT"}, "[7]": {"target": "Beta-1 adrenergic receptor (Homo sapiens, UniProt P08588)", "experiment": "Displacement of [125I]Iodopindolol from human adrenergic beta-1 receptor"}, "[8]": {"target": "5-hydroxytryptamine receptor 1B (Homo sapiens, UniProt P28222)", "experiment": "Displacement of [3H]GR127543 from human 5HT1B receptor"}, "[9]": {"target": "5-hydroxytryptamine receptor 1E (Homo sapiens, UniProt P28566)", "experiment": "Displacement of [3H]5-HT from human 5HT1E receptor"}, "[10]": {"target": "5-hydroxytryptamine receptor 7 (Homo sapiens, UniProt P34969)", "experiment": "Displacement of [3H]LSD from human 5HT7 receptor"}, "[11]": {"target": "Beta-2 adrenergic receptor (Homo sapiens, UniProt P07550)", "experiment": "Displacement of [125I]Iodopindolol from human adrenergic beta2 receptor"}, "[12]": {"target": "5-hydroxytryptamine receptor 2A (Homo sapiens, UniProt P28223)", "experiment": "Displacement of [3H]Ketanserin from human 5HT2A receptor"}, "D(1A) dopamine receptor": {"target": "D(1A) dopamine receptor (Homo sapiens, UniProt P21728)", "experiment": "Displacement of [3H]SCH233930 from human dopamine D1 receptor"}, "[13]": {"target": "Beta-3 adrenergic receptor (Homo sapiens, UniProt P13945)", "sequence (P13945 whole entry)": "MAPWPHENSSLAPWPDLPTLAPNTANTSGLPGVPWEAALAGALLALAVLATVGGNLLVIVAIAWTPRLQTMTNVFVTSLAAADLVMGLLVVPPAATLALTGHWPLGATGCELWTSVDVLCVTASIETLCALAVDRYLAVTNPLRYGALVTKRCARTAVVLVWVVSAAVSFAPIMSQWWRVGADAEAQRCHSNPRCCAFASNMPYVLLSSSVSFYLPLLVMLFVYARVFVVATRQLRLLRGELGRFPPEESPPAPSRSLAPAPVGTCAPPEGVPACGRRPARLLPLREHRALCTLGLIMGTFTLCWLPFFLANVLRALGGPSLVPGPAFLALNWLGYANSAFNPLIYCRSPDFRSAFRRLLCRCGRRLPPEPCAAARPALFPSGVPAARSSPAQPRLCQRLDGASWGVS", "experiment": "Displacement of [125I]Iodopindolol from human adrenergic beta3 receptor"}, "Histamine H1 receptor": {"target": "Histamine H1 receptor (Homo sapiens, UniProt P35367)", "sequence (P35367 whole entry)": "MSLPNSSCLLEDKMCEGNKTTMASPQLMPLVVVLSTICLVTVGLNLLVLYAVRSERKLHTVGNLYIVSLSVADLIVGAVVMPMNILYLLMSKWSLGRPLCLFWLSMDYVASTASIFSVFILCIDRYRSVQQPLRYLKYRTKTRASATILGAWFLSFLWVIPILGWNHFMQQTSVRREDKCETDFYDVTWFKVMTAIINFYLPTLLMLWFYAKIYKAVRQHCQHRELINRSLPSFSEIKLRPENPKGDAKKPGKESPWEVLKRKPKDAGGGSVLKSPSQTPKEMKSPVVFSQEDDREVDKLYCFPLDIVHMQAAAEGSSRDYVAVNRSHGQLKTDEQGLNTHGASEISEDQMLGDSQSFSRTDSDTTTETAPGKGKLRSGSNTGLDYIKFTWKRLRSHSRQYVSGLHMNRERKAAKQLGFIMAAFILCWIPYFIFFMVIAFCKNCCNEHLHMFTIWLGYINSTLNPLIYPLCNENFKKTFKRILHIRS", "experiment": "Displacement of [3H]Pyrilamine from human histamine H1 receptor"}, "[14]": {"target": "Alpha-1B adrenergic receptor (Homo sapiens, UniProt P35368)", "experiment": "Displacement of [3H]Prazosin from human adrenergic Alpha-1B receptor"}, "[15]": {"target": "5-hydroxytryptamine receptor 5A (Homo sapiens, UniProt P47898)", "experiment": "Displacement of [3H]LSD from human 5HT5A receptor"}, "[16]": {"experiment": "Displacement of [3H]DTG from human sigma 2 receptor"}, "Histamine H2 receptor": {"target": "Histamine H2 receptor (Homo sapiens, UniProt P25021)", "sequence (P25021 whole entry)": "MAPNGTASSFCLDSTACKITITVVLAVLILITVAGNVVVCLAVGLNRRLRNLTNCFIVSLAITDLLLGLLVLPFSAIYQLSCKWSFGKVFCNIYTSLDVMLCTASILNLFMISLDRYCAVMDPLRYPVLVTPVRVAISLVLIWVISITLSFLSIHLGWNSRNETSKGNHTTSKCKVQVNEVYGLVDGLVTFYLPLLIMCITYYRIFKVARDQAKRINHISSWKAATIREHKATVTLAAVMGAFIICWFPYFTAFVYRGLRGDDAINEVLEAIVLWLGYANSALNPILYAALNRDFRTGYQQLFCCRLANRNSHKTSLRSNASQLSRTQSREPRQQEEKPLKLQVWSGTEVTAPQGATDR", "experiment": "Displacement of [3H]Tiotidine from human histamine H2 receptor"}, "[17]": {"target": "Muscarinic acetylcholine receptor M1 (Homo sapiens, UniProt P11229)", "experiment": "Displacement of [3H]QNB from human muscarinic M1 receptor"}, "[18]": {"target": "5-hydroxytryptamine receptor 6 (Homo sapiens, UniProt P50406)", "experiment": "Displacement of [3H]LSD from human 5HT6 receptor"}, "D(1B) dopamine receptor": {"target": "D(1B) dopamine receptor (Homo sapiens, UniProt P21918)", "experiment": "Displacement of [3H]SCH233930 from human dopamine D5 receptor"}, "[19]": {"target": "Sodium-dependent serotonin transporter (Homo sapiens, UniProt P31645)", "experiment": "Displacement of [3H]Citalopram from human SERT"}, "[20]": {"target": "Alpha-1A adrenergic receptor (Homo sapiens, UniProt P35348)", "sequence (P35348 whole entry)": "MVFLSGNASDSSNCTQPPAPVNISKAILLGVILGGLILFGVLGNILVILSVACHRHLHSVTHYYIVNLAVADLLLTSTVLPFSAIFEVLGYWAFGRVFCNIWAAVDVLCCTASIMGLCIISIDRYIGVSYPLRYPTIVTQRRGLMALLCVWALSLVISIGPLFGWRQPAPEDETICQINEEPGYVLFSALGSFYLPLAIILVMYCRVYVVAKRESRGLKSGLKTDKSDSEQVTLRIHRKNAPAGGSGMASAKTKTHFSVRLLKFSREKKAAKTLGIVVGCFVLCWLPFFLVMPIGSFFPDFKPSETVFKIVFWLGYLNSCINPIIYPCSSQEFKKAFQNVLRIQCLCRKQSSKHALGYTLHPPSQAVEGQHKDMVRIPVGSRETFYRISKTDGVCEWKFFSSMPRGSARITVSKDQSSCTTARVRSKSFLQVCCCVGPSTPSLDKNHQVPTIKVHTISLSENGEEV", "experiment": "Displacement of [3H]Prazosin from human adrenergic alpha1A receptor"}, "[21]": {"target": "Muscarinic acetylcholine receptor M4 (Homo sapiens, UniProt P08173)", "experiment": "Displacement of [3H]QNB from human muscarinic M4 receptor"}, "[22]": {"target": "Sodium-dependent noradrenaline transporter (Homo sapiens, UniProt P23975)", "experiment": "Displacement of [3H]Nisoxetine from human NET"}, "D(4) dopamine receptor": {"target": "D(4) dopamine receptor (Homo sapiens, UniProt P21917)", "experiment": "Displacement of [3H]N-methylspiperone from human dopamine D4 receptor"}, "[23]": {"target": "Muscarinic acetylcholine receptor M2 (Homo sapiens, UniProt P08172)", "sequence (P08172 whole entry)": "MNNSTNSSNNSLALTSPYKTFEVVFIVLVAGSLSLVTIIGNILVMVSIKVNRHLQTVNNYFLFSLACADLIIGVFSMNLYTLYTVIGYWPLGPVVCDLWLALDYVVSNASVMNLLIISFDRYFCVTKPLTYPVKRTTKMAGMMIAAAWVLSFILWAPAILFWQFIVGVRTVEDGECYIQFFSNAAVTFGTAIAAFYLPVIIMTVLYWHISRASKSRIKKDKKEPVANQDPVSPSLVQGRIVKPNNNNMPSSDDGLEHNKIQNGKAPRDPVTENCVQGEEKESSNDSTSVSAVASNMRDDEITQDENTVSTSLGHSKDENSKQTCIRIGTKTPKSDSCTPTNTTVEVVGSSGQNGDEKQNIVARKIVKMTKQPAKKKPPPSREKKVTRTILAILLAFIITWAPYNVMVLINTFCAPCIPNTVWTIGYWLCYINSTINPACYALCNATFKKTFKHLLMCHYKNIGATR", "experiment": "Displacement of [3H]QNB from human muscarinic M2 receptor"}, "Mu-type opioid receptor": {"target": "Mu-type opioid receptor (Homo sapiens, UniProt P35372)", "experiment": "Displacement of [3H]DAMGO from human MOR"}, "[24]": {"target": "Alpha-2C adrenergic receptor (Homo sapiens, UniProt P18825)", "experiment": "Displacement of [3H]Clonidine from human adrenergic Alpha-2C receptor"}, "[25]": {"target": "Delta-type opioid receptor (Homo sapiens, UniProt P41143)", "sequence (P41143 whole entry)": "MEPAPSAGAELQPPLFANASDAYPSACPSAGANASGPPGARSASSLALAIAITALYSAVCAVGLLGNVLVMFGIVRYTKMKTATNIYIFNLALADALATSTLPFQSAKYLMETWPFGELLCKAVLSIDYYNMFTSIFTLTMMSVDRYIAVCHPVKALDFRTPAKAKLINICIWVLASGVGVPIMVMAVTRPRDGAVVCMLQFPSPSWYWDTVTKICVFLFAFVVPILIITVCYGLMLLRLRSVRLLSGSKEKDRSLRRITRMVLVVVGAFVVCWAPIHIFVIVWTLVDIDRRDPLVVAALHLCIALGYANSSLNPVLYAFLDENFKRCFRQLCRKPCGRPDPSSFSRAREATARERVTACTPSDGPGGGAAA", "experiment": "Displacement of [3H]DADLE from human DOR"}, "[26]": {"target": "5-hydroxytryptamine receptor 3A (Homo sapiens, UniProt P46098)", "sequence (P46098 whole entry)": "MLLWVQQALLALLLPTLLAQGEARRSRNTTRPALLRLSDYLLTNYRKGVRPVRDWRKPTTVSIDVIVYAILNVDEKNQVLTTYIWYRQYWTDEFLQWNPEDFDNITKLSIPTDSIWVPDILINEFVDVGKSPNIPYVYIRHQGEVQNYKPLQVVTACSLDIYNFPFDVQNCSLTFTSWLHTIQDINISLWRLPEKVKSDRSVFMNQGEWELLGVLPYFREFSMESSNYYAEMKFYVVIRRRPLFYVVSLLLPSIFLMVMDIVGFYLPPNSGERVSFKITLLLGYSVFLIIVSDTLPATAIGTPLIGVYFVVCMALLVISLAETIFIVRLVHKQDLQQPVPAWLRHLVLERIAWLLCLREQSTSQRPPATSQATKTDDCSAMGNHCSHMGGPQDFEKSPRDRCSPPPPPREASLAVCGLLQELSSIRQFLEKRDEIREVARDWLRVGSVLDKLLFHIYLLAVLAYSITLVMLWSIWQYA", "experiment": "Displacement of [3H]LY278584 from human 5HT3 receptor"}, "Histamine H4 receptor": {"target": "Histamine H4 receptor (Homo sapiens, UniProt Q9H3N8)", "experiment": "Displacement of [3H]Histamine from human histamine H4 receptor"}, "[27]": {"target": "Kappa-type opioid receptor (Homo sapiens, UniProt P41145)", "experiment": "Displacement of [3H]U69593 from human KOR"}, "D(3) dopamine receptor": {"target": "D(3) dopamine receptor (Homo sapiens, UniProt P35462)", "sequence (P35462 whole entry)": "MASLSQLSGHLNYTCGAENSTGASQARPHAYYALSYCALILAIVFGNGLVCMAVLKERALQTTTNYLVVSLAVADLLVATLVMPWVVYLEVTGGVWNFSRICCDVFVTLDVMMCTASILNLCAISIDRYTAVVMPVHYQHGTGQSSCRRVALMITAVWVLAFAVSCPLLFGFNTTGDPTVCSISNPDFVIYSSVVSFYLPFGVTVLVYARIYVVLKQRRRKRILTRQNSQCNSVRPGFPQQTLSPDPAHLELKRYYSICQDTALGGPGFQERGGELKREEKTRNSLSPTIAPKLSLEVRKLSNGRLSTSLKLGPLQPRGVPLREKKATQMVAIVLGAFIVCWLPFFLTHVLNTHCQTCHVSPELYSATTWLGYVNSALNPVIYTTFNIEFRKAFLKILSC", "experiment": "Displacement of [3H]N-methylspiperone from human dopamine D3 receptor"}, "[28]": {"target": "5-hydroxytryptamine receptor 1D (Homo sapiens, UniProt P28221)", "sequence (P28221 whole entry)": "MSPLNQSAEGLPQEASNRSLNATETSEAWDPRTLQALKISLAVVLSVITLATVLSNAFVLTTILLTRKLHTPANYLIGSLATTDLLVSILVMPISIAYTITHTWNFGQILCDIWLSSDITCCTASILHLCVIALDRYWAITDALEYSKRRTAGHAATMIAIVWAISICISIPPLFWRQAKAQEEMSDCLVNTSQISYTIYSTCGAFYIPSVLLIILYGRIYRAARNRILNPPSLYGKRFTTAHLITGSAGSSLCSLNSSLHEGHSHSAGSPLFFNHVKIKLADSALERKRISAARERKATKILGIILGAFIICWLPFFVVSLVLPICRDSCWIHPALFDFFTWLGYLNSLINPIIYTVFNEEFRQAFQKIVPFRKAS", "experiment": "Displacement of [3H]GR127543 from human 5HT1D receptor"}, "[29]": {"target": "Muscarinic acetylcholine receptor M3 (Homo sapiens, UniProt P20309)", "experiment": "Displacement of [3H]QNB from human muscarinic M3 receptor"}, "Rattus norvegicus [30]": {"tested_on": "Rattus norvegicus", "experiment": "Toxicity in rat at 1 mg/kg, ip after 15 mins", "type": "organism-based", "set-up": "dose 1 mg/kg, route intraperitoneal", "conditions": "in vivo, 0.25 h"}, "Rattus norvegicus [31]": {"tested_on": "Rattus norvegicus", "experiment": "Inhibition of MDMA-induced behavioral suppression in rat assessed as earning of 20 food pellets at 0.1 mg/kg, ip administered 15 mins before MDMA challenge by food-reinforced operant task method", "type": "functional, organism-based", "set-up": "dose 0.1 mg/kg"}, "Rattus norvegicus [32]": {"tested_on": "Rattus norvegicus", "experiment": "Inhibition of MDMA-induced behavioral suppression in rat assessed as earning of 20 food pellets at 0.3 mg/kg, ip administered 15 mins before MDMA challenge by food-reinforced operant task method", "type": "functional, organism-based", "set-up": "dose 0.3 mg/kg"}}, "note": "Active and inactive are the calls of the source. No cut-off for these calls is given here.", "data": [{"smiles": "COc1cc2c3c(c1OC)-c1cc4c(cc1CC3N(C)CC2)OCO4", "note": "(racemic) [NANTENINE]", "values": [{"measurement": "Ki", "setting": "[1]", "result": 252, "unit": "nM"}, {"measurement": "Ki", "setting": "D(2) dopamine receptor", "result": 858, "unit": "nM"}, {"measurement": "Ki", "setting": "Histamine H3 receptor", "result": "> 10000", "unit": "nM"}, {"measurement": "Ki", "setting": "[2]", "result": 340, "unit": "nM"}, {"measurement": "Ki", "setting": "[3]", "result": 1290, "unit": "nM"}, {"measurement": "Ki", "setting": "[4]", "result": 543, "unit": "nM"}, {"measurement": "Ki", "setting": "[5]", "result": 1070, "unit": "nM"}, {"measurement": "Ki", "setting": "[6]", "result": "> 10000", "unit": "nM"}, {"measurement": "Ki", "setting": "[7]", "result": 8570, "unit": "nM"}, {"measurement": "Ki", "setting": "[8]", "result": 100, "unit": "nM"}, {"measurement": "Ki", "setting": "[9]", "result": "> 10000", "unit": "nM"}, {"measurement": "Ki", "setting": "[10]", "result": 67, "unit": "nM"}, {"measurement": "Ki", "setting": "[11]", "result": "> 10000", "unit": "nM"}, {"measurement": "Ki", "setting": "[12]", "result": 832, "unit": "nM"}, {"measurement": "Ki", "setting": "D(1A) dopamine receptor", "result": 895, "unit": "nM"}, {"measurement": "Ki", "setting": "[13]", "result": "> 10000", "unit": "nM"}, {"measurement": "Ki", "setting": "Histamine H1 receptor", "result": "> 10000", "unit": "nM"}, {"measurement": "Ki", "setting": "[14]", "result": 1190, "unit": "nM"}, {"measurement": "Ki", "setting": "[15]", "result": 2220, "unit": "nM"}, {"measurement": "Ki", "setting": "[16]", "result": "> 10000", "unit": "nM"}, {"measurement": "Ki", "setting": "Histamine H2 receptor", "result": 672, "unit": "nM"}, {"measurement": "Ki", "setting": "[17]", "result": "> 10000", "unit": "nM"}, {"measurement": "Ki", "setting": "[18]", "result": 257, "unit": "nM"}, {"measurement": "Ki", "setting": "D(1B) dopamine receptor", "result": 2400, "unit": "nM"}, {"measurement": "Ki", "setting": "[19]", "result": 244, "unit": "nM"}, {"measurement": "Ki", "setting": "[20]", "result": 2, "unit": "nM"}, {"measurement": "Ki", "setting": "[21]", "result": "> 10000", "unit": "nM"}, {"measurement": "Ki", "setting": "[22]", "result": "> 10000", "unit": "nM"}, {"measurement": "Ki", "setting": "D(4) dopamine receptor", "result": 262, "unit": "nM"}, {"measurement": "Ki", "setting": "[23]", "result": "> 10000", "unit": "nM"}, {"measurement": "Ki", "setting": "Mu-type opioid receptor", "result": 7260, "unit": "nM"}, {"measurement": "Ki", "setting": "[24]", "result": 181, "unit": "nM"}, {"measurement": "Ki", "setting": "[25]", "result": "> 10000", "unit": "nM"}, {"measurement": "Ki", "setting": "[26]", "result": "> 10000", "unit": "nM"}, {"measurement": "Ki", "setting": "Histamine H4 receptor", "result": "> 10000", "unit": "nM"}, {"measurement": "Ki", "setting": "[27]", "result": "> 10000", "unit": "nM"}, {"measurement": "Ki", "setting": "D(3) dopamine receptor", "result": 309, "unit": "nM"}, {"measurement": "Ki", "setting": "[28]", "result": 49, "unit": "nM"}, {"measurement": "Ki", "setting": "[29]", "result": "> 10000", "unit": "nM"}]}, {"smiles": "O=C(c1ccc(F)cc1)C1CCN(CCn2c(=O)[nH]c3ccccc3c2=O)CC1", "note": "[KETANSERIN]", "values": [{"measurement": "Activity", "setting": "Rattus norvegicus [30]", "result": "Toxic"}, {"measurement": "Activity", "setting": "Rattus norvegicus [31]", "result": "Active"}, {"measurement": "Activity", "setting": "Rattus norvegicus [32]", "result": "Active"}]}]}
